Consider 3 molecules from PubChem BioAssay AID1259407 (Chemical Carcinogenesis Research Information System (CCRIS), 2018).

Activity calls are given as the source filed them. How the calls were made is not given here.

The series concerns CCRIS mutagenicity, Ames/micronucleus/aberration tests. The series is described as follows: CCRIS mutagenicity studies.
The mark [1] stands for this setting: Test System: AMES SALMONELLA TYPHIMURIUM, Strain/Indicator: TA98, Metabolic Activation: NONE, Method: PREINCUBATION
[2] abbreviates: Test System: AMES SALMONELLA TYPHIMURIUM, Strain/Indicator: TA100, Metabolic Activation: NONE, Method: PREINCUBATION
Where [3] appears, read: Test System: AMES SALMONELLA TYPHIMURIUM, Strain/Indicator: TA1535, Metabolic Activation: NONE, Method: PREINCUBATION
[4] abbreviates: Test System: AMES SALMONELLA TYPHIMURIUM, Strain/Indicator: TA1537, Metabolic Activation: NONE, Method: PREINCUBATION

Consider `CC1(C)S[C@@H]2[C@H](NC(=O)[C@H](N)c3ccccc3)C(=O)N2[C@H]1C(=O)O`, for which the mutagenic call is, setting by setting: (End Point: IN VITRO CHROMOSOMAL ABERRATIONS, Test System: CHO CELLS, Metabolic Activation: NONE) “inactive; negative; testing limited by solubility of chemical”; (End Point: IN VITRO CHROMOSOMAL ABERRATIONS, Test System: CHO CELLS, Metabolic Activation: RAT, LIVER, S-9, AROCLOR 1254) “inactive; negative; testing limited by solubility of chemical”; (Test System: AMES SALMONELLA TYPHIMURIUM, Strain/Indicator: TA98, Metabolic Activation: HAMSTER, LIVER, S-9, AROCLOR 1254, Method: PREINCUBATION) “inactive; negative”; under setting [1], “inactive; negative”; (Test System: AMES SALMONELLA TYPHIMURIUM, Strain/Indicator: TA98, Metabolic Activation: RAT, LIVER, S-9, AROCLOR 1254, Method: PREINCUBATION) “inactive; negative”; (Test System: AMES SALMONELLA TYPHIMURIUM, Strain/Indicator: TA100, Metabolic Activation: HAMSTER, LIVER, S-9, AROCLOR 1254, Method: PREINCUBATION) “inactive; negative”. Also, the mutagenic call is “inactive; negative” under setting [2]; “inactive; negative” (Test System: AMES SALMONELLA TYPHIMURIUM, Strain/Indicator: TA100, Metabolic Activation: RAT, LIVER, S-9, AROCLOR 1254, Method: PREINCUBATION); “inactive; negative” (Test System: AMES SALMONELLA TYPHIMURIUM, Strain/Indicator: TA1535, Metabolic Activation: HAMSTER, LIVER, S-9, AROCLOR 1254, Method: PREINCUBATION); “inactive; negative” under setting [3]; “inactive; negative” (Test System: AMES SALMONELLA TYPHIMURIUM, Strain/Indicator: TA1535, Metabolic Activation: RAT, LIVER, S-9, AROCLOR 1254, Method: PREINCUBATION); “inactive; negative” (Test System: AMES SALMONELLA TYPHIMURIUM, Strain/Indicator: TA1537, Metabolic Activation: HAMSTER, LIVER, S-9, AROCLOR 1254, Method: PREINCUBATION). Besides, the mutagenic call under setting [4] is “inactive; negative”; the mutagenic call (Test System: AMES SALMONELLA TYPHIMURIUM, Strain/Indicator: TA1537, Metabolic Activation: RAT, LIVER, S-9, AROCLOR 1254, Method: PREINCUBATION) is “inactive; negative”; the mutagenic call (Test System: MOUSE LYMPHOMA, Strain/Indicator: L5178Y (TK+/TK-), Metabolic Activation: NONE, Method: SUSPENSION/PLATE) is “inactive; negative”; the mutagenic call (Test System: MOUSE LYMPHOMA, Strain/Indicator: L5178Y (TK+/TK-), Metabolic Activation: RAT, LIVER, S-9, AROCLOR 1254, Method: SUSPENSION/PLATE) was “inactive; negative”.

Turning to `O=c1ccc2ccccc2o1`, the mutagenic call is “inactive; negative” (End Point: IN VITRO CHROMOSOMAL ABERRATIONS, Test System: CHINESE HAMSTER OVARY CELLS, Metabolic Activation: NONE); “active; positive” (End Point: IN VITRO CHROMOSOMAL ABERRATIONS, Test System: CHINESE HAMSTER OVARY CELLS, Metabolic Activation: RAT, LIVER, S-9, AROCLOR 1254); “inactive; negative” (End Point: IN VIVO MICRONUCLEUS, Test System: BONE MARROW CELLS, Species: MOUSE, Strain/Sex: SWISS/MALE, FEMALE, Route: GAVAGE); “inactive; negative” (Test System: AMES SALMONELLA TYPHIMURIUM, Strain/Indicator: TA98, Metabolic Activation: HAMSTER, LIVER, S-9, AROCLOR 1254 (10%), Method: PREINCUBATION); “inactive; negative” (Test System: AMES SALMONELLA TYPHIMURIUM, Strain/Indicator: TA98, Metabolic Activation: NONE, Method: FLUCTUATION (MICROTITER)); “inactive; negative” under setting [1]. Also, the mutagenic call is “inactive; negative” (Test System: AMES SALMONELLA TYPHIMURIUM, Strain/Indicator: TA98, Metabolic Activation: RAT LIVER S-9, AROCLOR 1254, Method: FLUCTUATION (MICROTITER)); “inactive; negative” (Test System: AMES SALMONELLA TYPHIMURIUM, Strain/Indicator: TA98, Metabolic Activation: RAT, LIVER, S-9, AROCLOR 1254 (10%), Method: PREINCUBATION); “active; positive” (Test System: AMES SALMONELLA TYPHIMURIUM, Strain/Indicator: TA100, Metabolic Activation: HAMSTER, LIVER, S-9, AROCLOR 1254 (10%), Method: PREINCUBATION); “inactive; negative” under setting [2]; “inactive; negative” (Test System: AMES SALMONELLA TYPHIMURIUM, Strain/Indicator: TA1535, Metabolic Activation: HAMSTER, LIVER, S-9, AROCLOR 1254 (10%), Method: PREINCUBATION); “inactive; negative” under setting [3]. Further, the mutagenic call is, setting by setting: (Test System: AMES SALMONELLA TYPHIMURIUM, Strain/Indicator: TA1535, Metabolic Activation: RAT, LIVER, S-9, AROCLOR 1254 (10%), Method: PREINCUBATION) “inactive; negative”; (Test System: AMES SALMONELLA TYPHIMURIUM, Strain/Indicator: TA1537, Metabolic Activation: HAMSTER, LIVER, S-9, AROCLOR 1254 (10%), Method: PREINCUBATION) “inactive; negative”; (Test System: AMES SALMONELLA TYPHIMURIUM, Strain/Indicator: TA1537, Metabolic Activation: NONE, Method: FLUCTUATION (MICROTITER)) “inactive; negative”; under setting [4], “inactive; negative”; (Test System: AMES SALMONELLA TYPHIMURIUM, Strain/Indicator: TA1537, Metabolic Activation: RAT LIVER S-9, AROCLOR 1254, Method: FLUCTUATION (MICROTITER)) “inactive; negative”; (Test System: AMES SALMONELLA TYPHIMURIUM, Strain/Indicator: TA1537, Metabolic Activation: RAT, LIVER, S-9, AROCLOR 1254 (10%), Method: PREINCUBATION) “inactive; negative”. The mutagenic call was “inactive; negative” (Test System: AMES SALMONELLA TYPHIMURIUM, Strain/Indicator: TA7001, Metabolic Activation: NONE, Method: FLUCTUATION (MICROTITER)); “inactive; negative” (Test System: AMES SALMONELLA TYPHIMURIUM, Strain/Indicator: TA7001, Metabolic Activation: RAT LIVER S-9, AROCLOR 1254, Method: FLUCTUATION (MICROTITER)); “inactive; negative” (Test System: AMES SALMONELLA TYPHIMURIUM, Strain/Indicator: TA7002, Metabolic Activation: NONE, Method: FLUCTUATION (MICROTITER)); “active; positive” (Test System: AMES SALMONELLA TYPHIMURIUM, Strain/Indicator: TA7002, Metabolic Activation: RAT LIVER S-9, AROCLOR 1254, Method: FLUCTUATION (MICROTITER)); “inactive; negative” (Test System: AMES SALMONELLA TYPHIMURIUM, Strain/Indicator: TA7003, Metabolic Activation: NONE, Method: FLUCTUATION (MICROTITER)); “inactive; negative” (Test System: AMES SALMONELLA TYPHIMURIUM, Strain/Indicator: TA7003, Metabolic Activation: RAT LIVER S-9, AROCLOR 1254, Method: FLUCTUATION (MICROTITER)). The mutagenic call reads like this: (Test System: AMES SALMONELLA TYPHIMURIUM, Strain/Indicator: TA7004, Metabolic Activation: NONE, Method: FLUCTUATION (MICROTITER)) “inactive; negative”; (Test System: AMES SALMONELLA TYPHIMURIUM, Strain/Indicator: TA7004, Metabolic Activation: RAT LIVER S-9, AROCLOR 1254, Method: FLUCTUATION (MICROTITER)) “inactive; negative”; (Test System: AMES SALMONELLA TYPHIMURIUM, Strain/Indicator: TA7005, Metabolic Activation: NONE, Method: FLUCTUATION (MICROTITER)) “inactive; negative”; (Test System: AMES SALMONELLA TYPHIMURIUM, Strain/Indicator: TA7005, Metabolic Activation: RAT LIVER S-9, AROCLOR 1254, Method: FLUCTUATION (MICROTITER)) “inactive; negative”; (Test System: AMES SALMONELLA TYPHIMURIUM, Strain/Indicator: TA7006, Metabolic Activation: NONE, Method: FLUCTUATION (MICROTITER)) “inactive; negative”; (Test System: AMES SALMONELLA TYPHIMURIUM, Strain/Indicator: TA7006, Metabolic Activation: RAT LIVER S-9, AROCLOR 1254, Method: FLUCTUATION (MICROTITER)) “inactive; negative”. The mutagenic call (Test System: UDS HUMAN HEPATOCYTES, Strain/Indicator: THY INCORP, Metabolic Activation: NONE, Method: AUTORADIOGRAPHY) was “inactive; negative”.

In the case of `CCNC(=O)CC[C@H](N)C(=O)O`, the mutagenic call (Test System: AMES SALMONELLA TYPHIMURIUM, Strain/Indicator: TA97, Metabolic Activation: NONE, Method: PREINCUBATION) was “inactive; negative”; the mutagenic call (Test System: AMES SALMONELLA TYPHIMURIUM, Strain/Indicator: TA97, Metabolic Activation: RAT, LIVER, S-9, AROCLOR 1254, Method: PREINCUBATION) was “inactive; negative”; the mutagenic call (Test System: AMES SALMONELLA TYPHIMURIUM, Strain/Indicator: TA102, Metabolic Activation: NONE, Method: PREINCUBATION) was “inactive; negative”; the mutagenic call (Test System: AMES SALMONELLA TYPHIMURIUM, Strain/Indicator: TA102, Metabolic Activation: RAT, LIVER, S-9, AROCLOR 1254, Method: PREINCUBATION) was “inactive; negative”.
